Tests used:
[1] = tested on: Toxoplasma gondii; experiment: Antiparasitic activity against Toxoplasma gondii RH type 1 infected in human HFF cells assessed as inhibition of parasite proliferation incubated for 30 hrs by Hoechst-33342, YFP2 and Alexa-488 dye based high content imaging analysis; type: functional, organism-based; details: RH type 1, HFF
[2] = target: Histone deacetylase 8 (Homo sapiens, UniProt Q9BY41); experiment: Inhibition of human HDAC8 in HeLa cells extract incubated for 5 mins followed by substrate addition and measured after 15 mins using Fluor-de-Lys as substrate by spectrofluorometric analysis; type: cell-free
[3] = tested on: HT-22; experiment: Neuroprotective activity against glutamate induced-neurotoxicity in mouse HT-22 cells assessed as cell viability at 40 uM preincubated for 4 hrs followed by glutamate stimulation and measured after 12 hrs by MTT assay; type: functional; details: time 16 hrs, read-out: Activity
[4] = Inhibition of synthetic AcPHF6 peptide aggregation measured upto 120 mins at 1 min interval by ThT-based fluorometric assay
[5] = target: Histone deacetylase 7 (Homo sapiens, UniProt Q8WUI4); experiment: Inhibition of human HDAC7 in HeLa cells extract incubated for 5 mins followed by substrate addition and measured after 15 mins using Fluor-de-Lys as substrate by spectrofluorometric analysis; type: cell-free
[6] = target: Histone deacetylase 4 (Homo sapiens, UniProt P56524); experiment: Inhibition of human HDAC4 in HeLa cells extract incubated for 5 mins followed by substrate addition and measured after 15 mins using Fluor-de-Lys as substrate by spectrofluorometric analysis; type: cell-free
[7] = tested on: HT-22; experiment: Neuroprotective activity against glutamate induced-neurotoxicity in mouse HT-22 cells assessed as cell viability preincubated for 4 hrs followed by glutamate stimulation and measured after 12 hrs by MTT assay; type: functional, cell-based
[8] = target: Histone deacetylase 2 (Homo sapiens, UniProt Q92769); experiment: Inhibition of human HDAC2 in HeLa cells extract incubated for 5 mins followed by substrate addition and measured after 15 mins using Fluor-de-Lys as substrate by spectrofluorometric analysis; type: cell-free
[9] = tested on: THP-1; experiment: Cytotoxicity against human THP-1 cells assessed as reduction in cell viability incubated for 72 hrs by MTT assay; type: functional, cell-based; details: THP-1, 72 h
[10] = tested on: Leishmania major; experiment: Antileishmanial activity against promastigote stage Leishmania major MHOM/JL/80/Friedlin overexpressing ABCI4 infected in human THP-1 cells assessed as fold change in reduction in parasite growth incubated for 72 hrs in presence of SbIII by MTT assay; type: functional
[11] = tested on: Leishmania major; experiment: Antileishmanial activity against promastigote stage Leishmania major MHOM/JL/80/Friedlin overexpressing ABCI4 infected in human THP-1 cells assessed as reduction in parasite growth incubated for 72 hrs by MTT assay; type: functional, organism-based; details: THP-1, 72 h
[12] = Binding affinity to Helicobacter pylori HTRA by SPR analysis
[13] = tested on: Plasmodium falciparum; experiment: Antimalarial activity against chloroquine-resistant erythrocyte stage Plasmodium falciparum assessed as growth inhibition incubated for 72 hrs by SYBR Green I dye based fluorescence analysis; type: functional, organism-based
[14] = tested on: Plasmodium berghei; experiment: Antimalarial activity against liver stage transgenic Plasmodium berghei (PbGFP-Luccon) infected in human Huh-7 cells assessed as reduction in parasite load incubated for 48 hrs by firefly luciferase assay; type: functional, organism-based; details: Huh-7, 48 h
[15] = tested on: HEK-293T; experiment: Cytotoxicity against human HEK293T cells assessed as reduction in cell viability incubated for 48 hrs by Alamar Blue assay; type: functional, cell-based
[16] = species: Homo sapiens; experiment: Selectivity index, ratio of IC50 for inhibition of recombinant human MAO-A to IC50 for inhibition of recombinant human MAO-B
[17] = target: T1, Amine oxidase [flavin-containing] A (Homo sapiens, UniProt P21397); experiment: Inhibition of recombinant human MAO-A
T1 sequence (P21397 whole entry): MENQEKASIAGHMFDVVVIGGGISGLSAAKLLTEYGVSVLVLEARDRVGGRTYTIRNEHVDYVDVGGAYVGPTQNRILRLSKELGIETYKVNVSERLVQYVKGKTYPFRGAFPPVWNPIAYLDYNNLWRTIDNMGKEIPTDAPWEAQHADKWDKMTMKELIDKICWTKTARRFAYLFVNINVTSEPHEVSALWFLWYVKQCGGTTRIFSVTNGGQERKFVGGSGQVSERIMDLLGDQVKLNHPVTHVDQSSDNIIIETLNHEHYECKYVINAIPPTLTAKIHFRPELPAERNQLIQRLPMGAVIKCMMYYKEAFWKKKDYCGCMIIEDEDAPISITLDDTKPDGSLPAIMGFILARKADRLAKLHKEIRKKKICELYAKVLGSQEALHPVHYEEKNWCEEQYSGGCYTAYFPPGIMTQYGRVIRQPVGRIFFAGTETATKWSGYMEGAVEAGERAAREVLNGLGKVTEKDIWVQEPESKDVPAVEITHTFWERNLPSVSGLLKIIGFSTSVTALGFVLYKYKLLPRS

[18] = target: T2, Amine oxidase [flavin-containing] B (Homo sapiens, UniProt P27338); experiment: Inhibition of recombinant human MAO-B
T2 sequence (P27338 whole entry): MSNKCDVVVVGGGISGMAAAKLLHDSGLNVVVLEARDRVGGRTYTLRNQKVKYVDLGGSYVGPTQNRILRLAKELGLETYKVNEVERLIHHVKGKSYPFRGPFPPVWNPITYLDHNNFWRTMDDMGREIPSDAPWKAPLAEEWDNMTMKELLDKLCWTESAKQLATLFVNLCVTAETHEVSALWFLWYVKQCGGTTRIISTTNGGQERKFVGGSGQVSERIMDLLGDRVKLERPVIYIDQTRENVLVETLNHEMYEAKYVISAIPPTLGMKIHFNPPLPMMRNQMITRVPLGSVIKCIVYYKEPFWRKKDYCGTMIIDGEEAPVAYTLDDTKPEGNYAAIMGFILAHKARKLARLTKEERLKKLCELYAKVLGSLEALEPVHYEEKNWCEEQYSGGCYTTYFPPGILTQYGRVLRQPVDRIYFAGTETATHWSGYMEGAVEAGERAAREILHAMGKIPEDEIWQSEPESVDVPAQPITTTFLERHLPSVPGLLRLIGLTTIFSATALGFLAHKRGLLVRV

[19] = target: Casein kinase 2 (Homo sapiens, UniProt P67870+P68400+P19784+Q8NEV1); experiment: Inhibition of recombinant human CK2 using RRRDDDSDDD as substrate in presence of [gamma-33P-ATP] incubated for 20 mins by beta-counter analysis; type: protein assay
[20] = tested on: Mycobacterium tuberculosis; experiment: Antimicrobial activity against Mycobacterium tuberculosis assessed as reduction in bacterial growth by Alamar Blue fluorescence assay; type: functional, organism-based
[21] = Cytotoxicity against mouse Peritoneal macrophage; type: toxicity, cell-based; details: peritoneal macrophages
[22] = tested on: Schistosoma mansoni; experiment: Antischistosomal activity against adult stage of Schistosoma mansoni assessed assessed as inhibition of parasite death; type: functional, organism-based
[23] = target: Acetylcholinesterase (Homo sapiens, UniProt P22303); experiment: Inhibition of human AchE by Ellman's method
[24] = tested on: U-251; experiment: Antiproliferative activity against doxorubicin resistant human U-251 cells assessed as inhibition of cell viability incubated for 48 hrs by sulforhodamine B assay; type: functional, cell-based; details: U-251, 48 h
[25] = tested on: NB-4; experiment: Cytotoxicity against human NB-4 cells assessed as reduction in cell viability; type: functional, cell-based
[26] = tested on: SH-SY5Y; experiment: Cytotoxicity against human SH-SY5Y cells assessed as reduction in cell viability; type: functional, cell-based
[27] = target: Serine/threonine-protein kinase AKT (Homo sapiens, UniProt P31751+Q9Y243+P31749); experiment: Inhibition of AKT (unknown origin) by FRET based Z'-LYTE assay; type: protein assay

Histone deacetylase 2, sequence (Q92769 whole entry): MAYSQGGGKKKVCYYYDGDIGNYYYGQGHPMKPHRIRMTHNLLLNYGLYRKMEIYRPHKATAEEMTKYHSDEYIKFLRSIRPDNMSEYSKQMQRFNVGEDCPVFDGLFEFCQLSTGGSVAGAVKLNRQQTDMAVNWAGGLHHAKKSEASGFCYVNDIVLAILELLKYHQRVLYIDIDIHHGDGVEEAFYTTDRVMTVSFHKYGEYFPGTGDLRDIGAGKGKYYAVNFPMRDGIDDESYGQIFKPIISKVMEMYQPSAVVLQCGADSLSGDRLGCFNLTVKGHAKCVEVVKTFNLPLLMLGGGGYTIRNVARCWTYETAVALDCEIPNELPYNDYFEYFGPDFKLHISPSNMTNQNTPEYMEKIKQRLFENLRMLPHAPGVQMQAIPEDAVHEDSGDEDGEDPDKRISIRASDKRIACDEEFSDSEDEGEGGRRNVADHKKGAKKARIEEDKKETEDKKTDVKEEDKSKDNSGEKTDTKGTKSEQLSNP
Histone deacetylase 4, sequence (P56524 whole entry): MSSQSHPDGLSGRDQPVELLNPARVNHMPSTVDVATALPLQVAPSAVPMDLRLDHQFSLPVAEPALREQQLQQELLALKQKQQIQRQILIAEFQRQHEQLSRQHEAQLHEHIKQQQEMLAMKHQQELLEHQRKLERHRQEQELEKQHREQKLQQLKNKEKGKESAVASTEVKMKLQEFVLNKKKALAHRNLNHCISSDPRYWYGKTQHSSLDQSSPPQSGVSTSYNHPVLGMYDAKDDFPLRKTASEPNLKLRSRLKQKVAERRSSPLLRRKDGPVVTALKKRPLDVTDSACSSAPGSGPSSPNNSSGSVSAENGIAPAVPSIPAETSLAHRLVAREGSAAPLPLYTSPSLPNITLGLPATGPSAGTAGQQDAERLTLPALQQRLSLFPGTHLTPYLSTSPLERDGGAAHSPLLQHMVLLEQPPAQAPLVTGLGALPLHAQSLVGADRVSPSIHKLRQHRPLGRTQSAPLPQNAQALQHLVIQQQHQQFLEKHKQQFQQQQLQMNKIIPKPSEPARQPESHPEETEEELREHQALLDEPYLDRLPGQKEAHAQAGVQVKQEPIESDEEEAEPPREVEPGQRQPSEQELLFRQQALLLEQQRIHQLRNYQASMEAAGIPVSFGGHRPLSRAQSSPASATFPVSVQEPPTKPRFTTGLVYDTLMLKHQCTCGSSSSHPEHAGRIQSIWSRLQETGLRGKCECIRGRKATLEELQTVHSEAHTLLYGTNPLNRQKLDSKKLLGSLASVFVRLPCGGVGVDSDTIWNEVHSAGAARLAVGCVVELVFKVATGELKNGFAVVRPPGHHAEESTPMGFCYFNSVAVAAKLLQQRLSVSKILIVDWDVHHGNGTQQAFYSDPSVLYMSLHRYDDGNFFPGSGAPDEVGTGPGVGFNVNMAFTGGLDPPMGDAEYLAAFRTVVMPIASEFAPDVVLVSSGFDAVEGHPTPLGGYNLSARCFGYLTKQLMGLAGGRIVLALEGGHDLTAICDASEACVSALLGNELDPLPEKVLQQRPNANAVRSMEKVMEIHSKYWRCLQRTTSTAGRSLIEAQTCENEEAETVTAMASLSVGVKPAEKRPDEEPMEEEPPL
Histone deacetylase 8, sequence (Q9BY41 whole entry): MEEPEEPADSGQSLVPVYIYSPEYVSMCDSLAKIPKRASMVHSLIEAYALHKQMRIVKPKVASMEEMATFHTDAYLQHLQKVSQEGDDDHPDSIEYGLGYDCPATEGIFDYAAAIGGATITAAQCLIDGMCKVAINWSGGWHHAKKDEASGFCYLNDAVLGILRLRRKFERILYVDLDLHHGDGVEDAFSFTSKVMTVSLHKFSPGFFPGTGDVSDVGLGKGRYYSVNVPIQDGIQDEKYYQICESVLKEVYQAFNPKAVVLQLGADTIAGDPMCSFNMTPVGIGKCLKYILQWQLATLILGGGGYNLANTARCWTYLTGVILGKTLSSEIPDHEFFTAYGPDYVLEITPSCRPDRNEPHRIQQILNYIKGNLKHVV
Acetylcholinesterase, sequence (P22303 whole entry): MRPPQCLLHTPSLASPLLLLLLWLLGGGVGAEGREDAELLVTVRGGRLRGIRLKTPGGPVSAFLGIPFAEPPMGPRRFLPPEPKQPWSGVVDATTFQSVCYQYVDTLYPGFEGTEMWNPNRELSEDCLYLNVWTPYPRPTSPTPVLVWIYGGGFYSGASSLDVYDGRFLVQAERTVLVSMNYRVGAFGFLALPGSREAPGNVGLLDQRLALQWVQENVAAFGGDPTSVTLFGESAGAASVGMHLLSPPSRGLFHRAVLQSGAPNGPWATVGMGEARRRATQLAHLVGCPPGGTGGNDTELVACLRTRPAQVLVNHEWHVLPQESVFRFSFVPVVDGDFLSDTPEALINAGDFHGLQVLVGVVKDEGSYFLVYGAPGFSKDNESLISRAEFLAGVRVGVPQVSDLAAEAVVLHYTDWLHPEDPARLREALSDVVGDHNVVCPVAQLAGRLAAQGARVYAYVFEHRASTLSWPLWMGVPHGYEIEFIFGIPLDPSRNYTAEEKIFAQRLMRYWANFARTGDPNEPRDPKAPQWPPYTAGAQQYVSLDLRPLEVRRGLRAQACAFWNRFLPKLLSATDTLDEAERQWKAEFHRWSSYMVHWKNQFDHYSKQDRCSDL
Histone deacetylase 7, sequence (Q8WUI4 whole entry): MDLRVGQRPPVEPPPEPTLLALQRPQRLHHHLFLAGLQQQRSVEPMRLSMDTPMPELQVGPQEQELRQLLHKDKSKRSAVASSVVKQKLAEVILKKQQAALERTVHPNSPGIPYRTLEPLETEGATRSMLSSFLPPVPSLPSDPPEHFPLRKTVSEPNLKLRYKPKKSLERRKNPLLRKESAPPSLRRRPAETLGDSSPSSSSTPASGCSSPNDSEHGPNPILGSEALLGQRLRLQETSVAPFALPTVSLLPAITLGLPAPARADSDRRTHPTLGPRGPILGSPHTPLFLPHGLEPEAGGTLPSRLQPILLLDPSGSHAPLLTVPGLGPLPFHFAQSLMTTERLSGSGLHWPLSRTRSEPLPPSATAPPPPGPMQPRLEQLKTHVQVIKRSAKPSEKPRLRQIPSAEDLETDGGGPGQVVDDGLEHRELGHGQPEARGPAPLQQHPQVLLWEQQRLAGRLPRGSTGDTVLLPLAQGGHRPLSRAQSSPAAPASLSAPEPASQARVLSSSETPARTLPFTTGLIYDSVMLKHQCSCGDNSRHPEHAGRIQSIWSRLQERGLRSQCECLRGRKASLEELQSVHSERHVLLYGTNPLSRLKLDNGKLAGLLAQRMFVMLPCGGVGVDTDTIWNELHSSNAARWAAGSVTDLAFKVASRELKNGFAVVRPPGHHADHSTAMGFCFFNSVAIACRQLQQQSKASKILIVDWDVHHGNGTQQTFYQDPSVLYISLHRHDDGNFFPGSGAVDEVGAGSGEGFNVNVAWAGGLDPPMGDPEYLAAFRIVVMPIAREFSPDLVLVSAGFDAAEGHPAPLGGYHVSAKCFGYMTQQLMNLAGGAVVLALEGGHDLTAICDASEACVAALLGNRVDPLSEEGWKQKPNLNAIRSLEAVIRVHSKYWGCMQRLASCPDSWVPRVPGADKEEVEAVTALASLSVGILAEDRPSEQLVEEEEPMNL

In the case of `O=C1/C(=C/c2cn(CC3CCCCC3)c3ccccc23)Oc2cc(O)cc(O)c21`, the IC50 [1] is reported as 10 µM.
`O=C1/C(=C/c2ccc(O)c(O)c2)Oc2cc(O)cc(O)c21` [AUREUSIDIN] gave a Ki [2] of 1.66 µM, a viability at 40 µM [3] of 97% and an inhibition [4] of 62%. It also gave a Ki [5] of 1.66 µM, a Ki [6] of 0.8 µM and an EC50 [7] of 11.9 µM. The Ki [8] was 1.66 µM.
For `COc1ccc(OC)c(/C=C2\Oc3cc(O)cc(O)c3C2=O)c1`, the EC50 [9] was 350 µM, the “fold change (FC)” value [10] was 6 and the EC50 [11] was 190 µM.
In the case of `O=C(O)c1cc(-c2ccc(/C=C3\Sc4ccccc4C3=O)o2)ccc1Cl`, the Kd [12] is reported as 12 µM.
`O=C1/C(=C/c2cccc(-c3ccc(C(F)(F)F)cc3)c2)Nc2ccccc21` showed an EC50 [13] of 0.11 µM, an EC50 [14] of over 100 µM and an EC50 [15] of 0.81 µM.
Work on `COc1cc2c(cc1OC)C(=O)/C(=C/c1ccc(N(C)C)cc1)C2` yielded a Ratio IC50 [16] of over 2500, an IC50 [17] of 0.02 µM and an IC50 [18] of 58 µM.
Molecule `O=C1/C(=C/c2ccc(O)c(Br)c2)Oc2c(Br)cccc21` has an IC50 [19] of 0.0033 µM.
Work on `CCOc1ccc2c(c1)O/C(=C\c1cccc(OCC(=O)OC)c1)C2=O` yielded an IC50 [20] of 4.8 µM.
Molecule `Cn1cc(/C=C2\Oc3ccccc3C2=O)c2ccccc21` has a CC50 [21] of over 150 µM and an EC50 [22] of 34 µM.
For `COc1cc2c(cc1OC)C(=O)/C(=C/c1ccc(OCCN3CCCCC3)cc1)C2`, the IC50 [23] was 0.3 µM.
For `O=C1/C(=C(\O)c2ccc3ccccc3c2)Cc2ccccc21`, the IC50 [24] was 2.5 µM.
`COc1ccc(/C=C2\Oc3c(ccc4c3C(=O)CC(C)(C)O4)C2=O)cc1` showed an IC50 [25] of 4.8 µM and an IC50 [26] of 3.4 µM.
Molecule `Cc1ccc2c(c1C)C(=O)/C(=C/c1ccccc1)C2` has an IC50 [27] of 0.066 µM.
